Reference: patent US5464617A, “β-lactam compounds” (Hoffmann-La Roche Inc., priority 1994, dated 1995)
In brackets after ≈: the same amount, converted by molar mass. Where a name gives a salt, the structure may show the parent alone.

Columns and labels:
[1] = tested on: Citrobacter freundii 1982; test: MIC in vitro of a 1:4 combination of ceftriaxone with a compound of formula I (Test D); format: cell-based; details: test D
Procedure: The minimum inhibitory concentration in vitro ([…]) of a 1:4 combination of ceftriaxone with a compound of formula I against Citrobacter freundii 1982 was measured and compiled in Table 2 hereinafter.

[2] = tested on: E. coli 1346; test: Antibacterial activity of the products per se, serial dilution method in liquid medium (Test E); format: cell-based; details: test E, product per se
Text: The antibacterial activity of the products per se is illustrated on the basis of Table 3 hereinafter, the minimum inhibitory concentration […] in vitro against E. coli 1346 being determined using the serial dilution method in liquid medium: […]

[3] = Table 4, 1:4 combination of ceftriaxone with the compound

Question: Which results are given for `O=C(Cn1nnnc1SCC1=C(C(=O)O)N2C(=O)[C@H]3NC[C@@H](O1)[C@H]32)NC1CC1` [Example 29(g), (1aS,3aR,6bS)-5-(1-(cyclopropyl-carbamoylmethyl)-1H-tetrazol-5-ylsulphanylmethyl)-1-oxo-1,1a,2,3,3a,6b-hexahydro-4-oxa-2,6a-diazacyclobut[cd]indene-6-carboxylic acid]?
Answer: MIC C. freundii 1982 (D) [1, 3]: 8 µg/mL; MIC E. coli 1346 (E) ([2]; Table 4): 8 µg/mL (≈ 19.6 µM)

Question: `NC(=O)Cn1nnnc1SCC1=C(C(=O)O)N2C(=O)[C@H]3NC[C@@H](O1)[C@H]32` [Example 29(j), (1aS,3aR,6bS)-5-(1-Carbamoylmethyl-1H-tetrazol-5-ylsulphanylmethyl)-1-oxo-1,1a,2,3,3a,6b-hexahydro-4-oxa-2,6a-diazacyclobut[cd]indene-6-carboxylic acid] was tested. Which “MIC C. freundii 1982 (D)” value [1, 3] did it give?
Answer: Its value is 4 µg/mL.

Question: And the “MIC E. coli 1346 (E)” value ([2]; Table 4)?
Answer: The value was 8 µg/mL (≈ 21.8 µM).

Question: For `CNC(=O)Cn1nnnc1SCC1=C(C(=O)O)N2C(=O)[C@H]3NC[C@@H](O1)[C@H]32` [Example 29(k), (1aS,3aR,6bS)-5-(1-Methylcarbamoylmethyl-1H-tetrazol-5-ylsulphanylmethyl)-1-oxo-1,1a,2,3,3a,6 b-hexahydro-4-oxa-2,6a-diazacyclobut[cd]indene-6-carboxylic acid], which “MIC C. freundii 1982 (D)” value [1, 3] is on record?
Answer: Its value is 8 µg/mL.

Question: What about the “MIC E. coli 1346 (E)” value ([2]; Table 4) of the same compound?
Answer: Its value is 32 µg/mL (≈ 83.9 µM).

Question: With `C=CCN1C[C@H]2OC(CSc3nnnn3C)=C(C(=O)O)N3C(=O)[C@@H]1[C@@H]23` [Example 30, (1aS,3aR,6bS)-2-Allyl-5-(1-methyl-1H-tetrazol-5-ylsulphanylmethyl)-1-oxo-4-oxa-1,1a,2,3,3a,6b-hexahydro-2,6a-diazacyclobut[cd]indene-6-carboxylic acid sodium salt] as the compound, how does the “MIC C. freundii 1982 (D)” value [1, 3] read?
Answer: Its value is 1 µg/mL.

Question: And the “MIC E. coli 1346 (E)” value ([2]; Table 4)?
Answer: The value was 8 µg/mL.

Question: With `Cc1nnc(SCC2=C(C(=O)O)N3C(=O)[C@@H]4[C@H]3[C@@H](CN4C(=O)Nc3ccc(O)cc3)O2)s1` [Example 31(a), (1aS,3aR,6bS)-2-(4-Hydroxy-phenylcarbamoyl)-5-(5-methyl-1,3,4-thiadiazol-2-ylsulphanylmethyl)-1-oxo-1,1a,2,3,3a,6 b-hexahydro-4-oxa-2,6a-diazacyclobut[cd]indene-6-carboxylic acid sodium salt] as the compound, how does the “MIC C. freundii 1982 (D)” value [1, 3] read?
Answer: The value was 0.5 µg/mL.

Question: What about the “MIC E. coli 1346 (E)” value ([2]; Table 4) of the same compound?
Answer: The value was 8 µg/mL.

Question: Which results are given for `CC(=O)N1C[C@H]2OC(CSc3nnc(N)s3)=C(C(=O)O)N3C(=O)[C@@H]1[C@@H]23` [Example 33, (1aS,3aR,6bS)-2-Acetyl-5-(5-amino-1,3,4-thiadiazol-2-ylsulphanylmethyl)-1-oxo-1,1a,2,3,3a,6b-hexahydro-4-oxa-2,6a-diazacyclobut[cd]indene-6-carboxylicacid sodium salt]?
Answer: MIC C. freundii 1982 (D) [1, 3]: 2 µg/mL; MIC E. coli 1346 (E) ([2]; Table 4): 2 µg/mL

Question: `Cc1nnc(SCC2=C(C(=O)O)N3C(=O)[C@@H]4[C@H]3[C@@H](CN4C(=O)CSc3nnnn3C)O2)s1` [Example 34, (1aS,3aR,6bS)-2-(1-Methyl-1H-tetrazol-5-ylsulphanylacetyl)-5-(5-methyl-1,3,4-thiadiazol-2-ylsulphanylmethyl)-1-oxo-1,1a,2,3,3a,6b-hexahydro-4-oxa-2,6a-diazacyclobut[cd]indene-6-carboxylic acid] was tested. Which “MIC C. freundii 1982 (D)” value [1, 3] did it give?
Answer: The value was 1 µg/mL.

Question: What about the “MIC E. coli 1346 (E)” value ([2]; Table 4) of the same compound?
Answer: Its value is 8 µg/mL (≈ 16.1 µM).

Question: `CC(=O)N1C[C@H]2OC(CSc3nnnn3C)=C(C(=O)O)N3C(=O)[C@@H]1[C@@H]23` [Example 35, (1aS,3aR,6bS)-2-Acetyl-5-(1-methyl-1H-tetrazol-5-yl-sulphanylmethyl)-1-oxo-1,1a,2,3,3a,6b-hexahydro-4-oxa-2,6 a-diazacyclobut[cd]indene-6-carboxylic acid sodium salt] was tested. Which “MIC C. freundii 1982 (D)” value ([1]; Table 5, particularly preferred products, 1:4 combination with ceftriaxone) did it give?
Answer: Its value is 1 µg/mL.

Question: And the “MIC E. coli 1346 (E)” value ([2]; Table 5, particularly preferred products)?
Answer: Its value is 0.5 µg/mL.

Question: `O=CN1C[C@H]2OC(CSc3nnnn3CC(=O)NC3CC3)=C(C(=O)O)N3C(=O)[C@@H]1[C@@H]23` [Example 37, (1aS,3aR,6bS)-5-(1-Cyclopropylcarbamoylmethyl-1H-tetrazol-5-ylsulphanylmethyl)-2-formyl-1-oxo-1,1a,2,3,3a,6b-hexahydro-4-oxa-2,6a-diazacyclobut[cd]indene-6-carboxylic acid sodium salt] was tested. Which “MIC C. freundii 1982 (D)” value [1, 3] did it give?
Answer: Its value is 32 µg/mL.

Question: And the “MIC E. coli 1346 (E)” value ([2]; Table 4)?
Answer: The value was 32 µg/mL.

Question: Which “MIC C. freundii 1982 (D)” value [1, 3] does the source give for `NC(=O)Cn1nnnc1SCC1=C(C(=O)O)N2C(=O)[C@@H]3[C@H]2[C@@H](CN3C(=O)C(F)(F)F)O1` [Example 39, (1aS,3aR,6bS)-5-(1-Carbamoylmethyl-1H-tetrazol-5-ylsulphanylmethyl)-1-oxo-2-trifluoroacetyl-1,1a,2,3,3a,6b-hexahydro-4-oxa-2,6a-diazacyclobut[cd]indene-6-carboxylic acid sodium salt] here?
Answer: Its value is 2 µg/mL.

Question: And the “MIC E. coli 1346 (E)” value ([2]; Table 4)?
Answer: The value was 8 µg/mL.

Question: For `Cn1nnnc1SCC1=C(C(=O)O)N2C(=O)[C@H]3NC[C@@H](S1)[C@H]32` [Example 40(a), (1aS,3aR,6bS)-5-(1-Methyl-1H-tetrazol-5-ylsulphanylmethyl)-1-oxo-4-thia-1,1a,2,3,3a,6b-hexahydro-2,6a-diazacyclobut[cd]indene-6-carboxylic acid], which “MIC C. freundii 1982 (D)” value [1, 3] is on record?
Answer: The value was 0.5 µg/mL.

Question: And the “MIC E. coli 1346 (E)” value ([2]; Table 4)?
Answer: Its value is 16 µg/mL (≈ 47 µM).

Question: How did the “MIC C. freundii 1982 (D)” value [1, 3] turn out when `Cn1nnnc1CSCC1=C(C(=O)O)N2C(=O)[C@H]3NC[C@@H](S1)[C@H]32` [Example 43, (1aS,3aR,6bS)-5-(1-Methyl-1H-tetrazol-5-ylmethylsulphanylmethyl)-1-oxo-4-thia-1,1a,2,3,3a,6 b-hexahydro-2,6a-diazacyclobut-[cd]indene-6-carboxylic acid sodium salt] was run?
Answer: The value was 4 µg/mL.

Question: And the “MIC E. coli 1346 (E)” value ([2]; Table 4)?
Answer: Its value is greater than 32 µg/mL.

Question: How did the “MIC C. freundii 1982 (D)” value [1, 3] turn out when `CSc1nnnn1CC1=C(C(=O)O)N2C(=O)[C@H]3NC[C@@H](S1)[C@H]32` [Example 44, (1aS,3aR,6bS)-5-(5-Methylsulphanyl-1H-tetrazol-1-ylmethyl)-1-oxo-1,1a,2,3,3a,6b-hexahydro-4-thia-2,6a-diazacyclobut[cd]indene-6-carboxylic acid sodium salt] was run?
Answer: Its value is 4 µg/mL.

Question: And the “MIC E. coli 1346 (E)” value ([2]; Table 4)?
Answer: Its value is 32 µg/mL.

Question: What does the source list for `C=CC1=C(C(=O)O)N2C(=O)[C@@H]3[C@H]2[C@H](C1)CN3C(C)=O` [Example 47, (1aS,3aR, 6bR)-2-Acetyl-1-oxo-5-vinyl-1a,2,3,3a,4,6b-hexahydro-1H-2,6a-diazacyclobut[cd]indene-6-carboxylic acid sodium salt]?
Answer: MIC C. freundii 1982 (D) [1, 3]: 4 µg/mL; MIC E. coli 1346 (E) ([2]; Table 4): 8 µg/mL

Question: Which “MIC C. freundii 1982 (D)” value [1, 3] does the source give for `O=C([O-])C[n+]1ccc(SCC2=C(C(=O)O)N3C(=O)[C@H]4NC[C@@H](C2)[C@H]43)cc1` [Example 50, (1aS,3aR,6bR)-[4-(6-Carboxy-1-oxo-1a,2,3,3a,4,6b-hexahydro-1H-2,6a-diazacyclobut[cd]indene-5-ylmethylsulphanyl)-pyridin-1-ylio]acetatetrifluoroacetate] here?
Answer: Its value is 2 µg/mL.

Question: What about the “MIC E. coli 1346 (E)” value ([2]; Table 4) of the same compound?
Answer: The value was 4 µg/mL (≈ 10.7 µM).

Question: For `O=C([O-])C[n+]1ccc(SCC2=C(C(=O)O)N3C(=O)[C@@H]4[C@H]3[C@H](C2)CN4C(=O)NCc2ccccc2)cc1` [Example 51, (1aS,3aR,6bR)-[4-(2-Benzylcarbamoyl-6-carboxy-1-oxo-1a,2,3,3a,4,6b-hexahydro-1H-2,6a-diazacyclobut[cd]inden-5-ylmethylsulphanyl)-pyridin-2-ylio]-acetate sodium salt], which “MIC C. freundii 1982 (D)” value [1, 3] is on record?
Answer: Its value is 1 µg/mL.

Question: And the “MIC E. coli 1346 (E)” value ([2]; Table 4)?
Answer: Its value is greater than 32 µg/mL.

Question: Which “MIC C. freundii 1982 (D)” value [1, 3] does the source give for `O=C([O-])C[n+]1ccc(SCC2=C(C(=O)O)N3C(=O)[C@@H]4[C@H]3[C@H](C2)CN4C(=O)C(F)(F)F)cc1` [Example 52(b), (1aS,3aR,6bR)-[4-(2-Trifluoroacetyl-6-carboxy-1-oxo-1a,2,3,3a,4,6b-hexahydro-1H-2,6a-diazacyclobut[cd]inden-5-ylmethylsulphanyl)-pyridin-1-ylio]-acetate sodium salt] here?
Answer: Its value is 1 µg/mL.

Question: What about the “MIC E. coli 1346 (E)” value ([2]; Table 4) of the same compound?
Answer: The value was 2 µg/mL.

Question: Which “MIC C. freundii 1982 (D)” value [1, 3] does the source give for `Cn1nc(O)c(=O)nc1SCC1=C(C(=O)O)N2C(=O)[C@H]3NC[C@@H](C1)[C@H]32` [Example 53, (1aS,3aR,6bR)-5-(2,5-Dihydro-6-hydroxy-2-methyl-5-oxo-1,2,4-triazin-3-ylsulphanylmethyl)-1-oxo-1a,2,3,3a,4,6 b-hexahydro-1H-2,6a-diazacyclobut[cd]indene-6-carboxylic acid trifluoroacetate] here?
Answer: The value was 4 µg/mL.

Question: And the “MIC E. coli 1346 (E)” value ([2]; Table 4)?
Answer: Its value is 2 µg/mL.

Question: With `Cn1nc(O)c(=O)nc1SCC1=C(C(=O)O)N2C(=O)[C@@H]3[C@H]2[C@H](C1)CN3C(=O)Nc1ccc(O)cc1` [Example 54, (1aS,3aR,6bR)-5-(2,5-Dihydro-6-hydroxy-2-methyl-5-oxo-1,2,4-triazin-3-ylsulphanylmethyl)-2-(4-hydroxy-phenylcarbamoyl)-1-oxo-1a,2,3,3a,4,6b-hexahydro-1H-2,6a-diazacydobut[cd]indene-6-carboxylic acid sodium salt (1:2)] as the compound, how does the “MIC C. freundii 1982 (D)” value [1, 3] read?
Answer: Its value is 0.25 µg/mL.

Question: And the “MIC E. coli 1346 (E)” value ([2]; Table 4)?
Answer: Its value is 32 µg/mL.

Question: Which “MIC C. freundii 1982 (D)” value [1, 3] does the source give for `Cc1nnc(SCC(=O)N2C[C@H]3CC(COC(N)=O)=C(C(=O)O)N4C(=O)[C@@H]2[C@@H]34)s1` [Example 58(e), (1aS,3aR,6bR)-5-Carbamoyloxymethyl-2-(5-methyl-1,3,4-thiadiazol-2-ylsulphanylacetyl)-1-oxo-1a,2,3,3a,4,6b-hexahydro-1H-2,6a-diazacyclobut[cd]indene-6-carboxylic acid sodium salt] here?
Answer: Its value is 0.25 µg/mL.

Question: And the “MIC E. coli 1346 (E)” value ([2]; Table 4)?
Answer: Its value is 8 µg/mL.

Question: `NC(=O)OCC1=C(C(=O)O)N2C(=O)[C@@H]3[C@H]2[C@H](C1)CN3CC(=O)Nc1ccc(O)cc1` [Example 59(a), (1aS,3aR,6bR)-5-Carbamoyloxymethyl-2-(4-hydroxyphenylcarbamoylmethyl)-1-oxo-I a,2,3,3a,4,6b-hexahydro-1H-2,6a-diazacyclobut[cd]indene-6-carboxylic acid sodium salt] was tested. Which “MIC C. freundii 1982 (D)” value [1, 3] did it give?
Answer: The value was 1 µg/mL.

Question: What about the “MIC E. coli 1346 (E)” value ([2]; Table 4) of the same compound?
Answer: The value was 2 µg/mL.
